The subject of data set [1] is VIOTR. The experiment in a line: Herbicidal activity, test type PE. To be noted: TEST-TYP PE; for pest or weed control at 320 g/ha: read-out: herbizide Wirkung VIOTR. The data set is classed as in vivo.
The test system of data set [2] is SETVI. In words: Herbicidal activity, test type PE. Particulars: TEST-TYP PE; for pest or weed control at 320 g/ha: read-out: herbizide Wirkung SETVI; for herbizide Wirkung SETVI: 320 G/HA. It is filed as in vivo.
For data set [3], the system named is AMARE. The experiment in a line: Herbicidal activity, test type PE. The data set is classed as in vivo. To be noted: TEST-TYP PE; for pest or weed control at 320 g/ha: Amaranthus retroflexus, read-out: herbizide Wirkung AMARE; for herbizide Wirkung AMARE: 320 G/HA.
Data set [4] is described as follows: logP by HPLC on reversed-phase columns (C 18), EEC Directive 79/831 Annex V.A8. The data set is classed as physicochemical. Particulars: c18 reversed-phase hplc, reversed-phase (C 18), read-out: log p. The text has this: Die Messung der logP Werte erfolgte gemäß EEC Directive 79/831 Annex V.A8 durch HPLC (High Performance Liquid Chromatography) an reversed-phase Säulen (C 18), mit der nachfolgenden Methode: […]

The test system of data set [5] is VERPE. The experiment in a line: Herbicidal activity, test type PE. The data set is classed as in vivo. To be noted: TEST-TYP PE; for pest or weed control at 320 g/ha: read-out: herbizide Wirkung VERPE; for herbizide Wirkung VERPE: 320 G/HA.
Data set [6] relates to MATIN. In words: Herbicidal activity, test type PE. It is filed as in vivo. To be noted: TEST-TYP PE; for pest or weed control at 320 g/ha: read-out: herbizide Wirkung MATIN.
The test system of data set [7] is AMARE. The experiment in a line: Herbicidal activity, test type PO. The data set is classed as in vivo. To be noted: TEST-TYP PO, 80 G/HA.
Data set [8] concerns STEME. The experiment in a line: Herbicidal activity, test type PE. The data set is classed as in vivo. Particulars: TEST-TYP PE, read-out: herbizide Wirkung STEME.
Data set [9] has as its system VERPE. The experiment in a line: Herbicidal activity, test type PO. To be noted: TEST-TYP PO, 80 G/HA. It is filed as in vivo.
Data set [10] deals with VIOTR. In words: Herbicidal activity, test type PO. The data set is classed as in vivo. Particulars: TEST-TYP PO, 80 G/HA.
The test system of data set [11] is LOLMU. The experiment in a line: Herbicidal activity, test type PE. It is filed as in vivo. Particulars: TEST-TYP PE, read-out: herbizide Wirkung LOLMU.
The test system of data set [12] is ECHCG. The experiment in a line: Herbicidal activity, test type PE. It is filed as in vivo. To be noted: TEST-TYP PE, 320 G/HA.
In data set [13] the test system is PHBPU. In words: Herbicidal activity, test type PO. The data set is classed as in vivo. Particulars: TEST-TYP PO, 80 G/HA.

Turning to `CCN(C)C=Nc1ncc(C)cc1-c1ccc(Cl)c(C(F)(F)F)c1` [compound 2], the pest or weed control at 320 g/ha in [1] and in data set [2] was 90% in each case.

In the case of `CCN(C)C=Nc1ncc(Cl)cc1-c1ccc(Cl)c(C(F)(F)F)c1` [compound 4], the results for the pest or weed control at 320 g/ha in data set [3], in [1] and in data set [2] were 90%, 80% and 90%, respectively.

On to `CCN(C=Nc1ncc(C)cc1-c1ccc(Cl)c(C(F)(F)F)c1)CC` [compound 7], for which the chromatographic logP in [4] was determined as 1.75.

Turning to `Cc1cnc(N=CN(C(C)C)C(C)C)c(-c2ccc(Cl)c(C(F)(F)F)c2)c1` [compound 8], the chromatographic logP in [4] was 2.03.

In the case of `CC(=Nc1ncc(C)cc1-c1ccc(Cl)c(C(F)(F)F)c1)N(C)C` [compound 9], the chromatographic logP in data set [4] was 0.87.

With `Cc1cnc(N=CN2CCCC2)c(-c2ccc(Cl)c(C(F)(F)F)c2)c1` [compound 10], the chromatographic logP in data set [4] is 1.63.

In the case of `CCN(C=Nc1ncc(Cl)cc1-c1ccc(Cl)c(C(F)(F)F)c1)CC` [compound 11], the chromatographic logP in data set [4] came out at 3.63. The pest or weed control at 320 g/ha in [3] and in data set [1] was 80% each time.

`CC(C)N(C=Nc1ncc(Cl)cc1-c1ccc(Cl)c(C(F)(F)F)c1)C(C)C` [compound 12]: the chromatographic logP in data set [4] is 3.71.

For the molecule `CN(C)C=Nc1ncc(Cl)cc1-c1ccc(F)c(C(F)(F)F)c1` [compound 13], the pest or weed control at 320 g/ha in data set [5] and in [3] was 80% each time. Also, in data set [4], the chromatographic logP was 2.

As to `CCN(C=Nc1ncc(Cl)cc1-c1ccc(F)c(C(F)(F)F)c1)CC` [compound 15], the pest or weed control at 320 g/ha in data set [6], in data set [3], in [8] and in [2] was 80% throughout. Also, the chromatographic logP in [4] is 2.59. In addition, the “herbizide Wirkung AMARE” value in data set [7] amounted to 90. In addition, the “herbizide Wirkung VERPE” value in data set [9] came out at 80. For the same molecule, the “herbizide Wirkung VIOTR” value in data set [10] came to 80.

With `Fc1ccc(-c2cc(Cl)cnc2N=CN2CCCC2)cc1C(F)(F)F` [compound 16], the pest or weed control at 320 g/ha in data set [5] was 80%; in data set [11], 80%; in data set [8] it was 80%; in [2], 100%. The chromatographic logP in data set [4] stood at 1.75.

As to `CCN(C)C=Nc1ncc(Br)cc1-c1ccc(Cl)c(C(F)(F)F)c1` [compound 17], the chromatographic logP in data set [4] turned out to be 3.09.

Regarding `CCN(C)C=Nc1ncc(C)cc1-c1ccc(F)c(C(F)(F)F)c1` [compound 18], the pest or weed control at 320 g/ha in data set [5] worked out at 100%; in data set [3], 80%; in data set [1], 90%; in data set [2] it was 90%. Besides, the chromatographic logP in data set [4] amounted to 1.48.

As for `Cc1cnc(N=CN(C)C)c(-c2ccc(F)c(C(F)(F)F)c2)c1` [compound 19], the chromatographic logP in data set [4] stood at 1.33.

On to `CC(=Nc1ncc(C)cc1-c1ccc(F)c(C(F)(F)F)c1)N(C)C` [compound 20], for which the chromatographic logP in [4] is 1.3.

For the molecule `CC(C)N(C=Nc1ncc(Cl)cc1-c1ccc(F)c(C(F)(F)F)c1)C(C)C` [compound 21], the chromatographic logP in [4] is 4.19.

As for `CC(=Nc1ncc(Cl)cc1-c1ccc(F)c(C(F)(F)F)c1)N1CCCCC1` [compound 22], the chromatographic logP in data set [4] worked out at 1.74.

As for `Cc1cnc(N=CN2CCCC2)c(-c2ccc(F)c(C(F)(F)F)c2)c1` [compound 25], the chromatographic logP in [4] turned out to be 1.46. Also, the pest or weed control at 320 g/ha in data set [3] and in [2] was 80% each time.

With `FC(F)(F)c1ccc(-c2cc(Cl)cnc2N=CN2CCCC2)cc1Cl` [compound 26], the chromatographic logP in data set [4] was 1.98.

As to `Cc1cnc(N=CN(C)C)c(-c2cccc(C(F)(F)F)c2)c1` [compound 31], the pest or weed control at 320 g/ha in [5] and in data set [2] was 80% throughout.

Consider `CCN(C)C=Nc1ncc(C)cc1-c1cccc(C(F)(F)F)c1` [compound 32], for which the pest or weed control at 320 g/ha in [5] worked out at 80%; in data set [6] it was 90%; in [3], 80%; in [1], 80%; in data set [2] it was 90%.

With `CCN(C)C=Nc1ncc(-c2ccc(Cl)c(C(F)(F)F)c2)cc1C` [compound 58], the pest or weed control at 320 g/ha in data set [5] was found to be 90%; in data set [6] it was 80%; in [3] it was 90%; in [2], 90%. Further, the “herbizide Wirkung ECHCG” value in data set [12] turned out to be 90.

As to `Cc1cc(-c2ccc(Cl)c(C(F)(F)F)c2)cnc1N=CN(C)C` [compound 59], the pest or weed control at 320 g/ha in data set [5], in data set [6], in data set [3], in data set [8] and in data set [1] was 80% in each case.

Take `Cc1cc(-c2ccc(F)c(C(F)(F)F)c2)cnc1N=CN(C)C` [compound 64]: the pest or weed control at 320 g/ha in data set [5] was determined as 100%; in data set [6], 100%; in data set [11], 90%; in [3] it was 90%; in data set [8], 90%; in data set [1], 90%. Also, the pest or weed control at 320 g/ha in data set [2] came out at 90%. Further, the “herbizide Wirkung AMARE” value in data set [7] turned out to be 80. Besides, the “herbizide Wirkung VIOTR” value in data set [10] is 80.

With `Cc1cc(-c2cccc(C(F)(F)F)c2)cnc1N=CN(C)C` [compound 76], the pest or weed control at 320 g/ha in data set [3] was 90%; in [1], 90%; in data set [2], 100%.

For the molecule `CCN(C)C=Nc1ncc(-c2cccc(C(F)(F)F)c2)cc1C` [compound 77], the “herbizide Wirkung ECHCG” value in data set [12] turned out to be 90. For the same molecule, the pest or weed control at 320 g/ha in data set [11] turned out to be 90%; in [3], 80%; in data set [2] it was 90%.

Turning to `CCN(C)C=Nc1ncc(-c2ccc(Cl)c(Cl)c2)cc1C` [compound 94], the pest or weed control at 320 g/ha in data set [5] is 80%; in [1] it was 80%; in data set [2] it was 90%.

As for `Cc1cc(-c2ccc(Cl)c(Cl)c2)cnc1N=CN(C)C` [compound 95], the pest or weed control at 320 g/ha in data set [1] and in data set [2] was 80% in each case.

With `CCN(C)C=Nc1ncc(-c2cccc(Cl)c2)cc1C` [compound 101], the “herbizide Wirkung PHBPU” value in [13] is 80. Further, the pest or weed control at 320 g/ha in data set [6] was found to be 95%; in data set [11] it was 80%; in data set [3] it was 80%; in data set [1], 80%; in [2], 90%. Moreover, in data set [12], the “herbizide Wirkung ECHCG” value was determined as 85. In addition, the “herbizide Wirkung AMARE” value in [7] is reported as 80.

For `Cc1cc(-c2cccc(Cl)c2)cnc1N=CN(C)C` [compound 102], the pest or weed control at 320 g/ha in data set [6] came out at 90%; in [11], 80%; in data set [1], 80%; in [2] it was 90%.

`CCN(C)C=Nc1ncc(-c2cccc(C)c2)cc1C` [compound 105]: the “herbizide Wirkung ECHCG” value in data set [12] was determined as 80. Moreover, the pest or weed control at 320 g/ha in data set [2] was 80%.

As to `Cc1cccc(-c2cnc(N=CN(C)C)c(C)c2)c1` [compound 106], the pest or weed control at 320 g/ha in data set [6] and in data set [1] was 80% in each case.

With `CCN(C)C=Nc1ncc(C)cc1-c1ccc(Cl)c(C(F)(F)F)c1` [compound 127], the pest or weed control at 320 g/ha in [6] worked out at 80%; in data set [3], 90%. Further, in data set [1] (320 G/HA), the “herbizide Wirkung VIOTR” value is recorded as 80. Besides, the “herbizide Wirkung SETVI” value in data set [2] is 90.

In the case of `CCN(C=Nc1ncc(Cl)cc1-c1ccc(F)c(C(F)(F)F)c1)CC` [compound 140], in data set [13], the “herbizide Wirkung PHBPU” value worked out at 80. Besides, the “herbizide Wirkung MATIN” value in data set [6] (320 G/HA) came to 80. Also, in [7], the “herbizide Wirkung AMARE” value is given as 80. Also, in data set [9], the “herbizide Wirkung VERPE” value was determined as 80. The “herbizide Wirkung SETVI” value in data set [2] stood at 80.

For `Fc1ccc(-c2cc(Cl)cnc2N=CN2CCCC2)cc1C(F)(F)F` [compound 141], in [3], the pest or weed control at 320 g/ha came to 80%. Moreover, the “herbizide Wirkung SETVI” value in data set [2] came out at 80.

Turning to `CCN(C)C=Nc1ncc(C)cc1-c1ccc(F)c(C(F)(F)F)c1` [compound 142], the “herbizide Wirkung VERPE” value in data set [5] came to 90. For the same molecule, the pest or weed control at 320 g/ha in [6] amounted to 80%; in data set [8], 90%. Moreover, in data set [3], the “herbizide Wirkung AMARE” value is 80. The “herbizide Wirkung SETVI” value in data set [2] came to 90.

For the molecule `Cc1cnc(N=CN2CCCC2)c(-c2ccc(F)c(C(F)(F)F)c2)c1` [compound 147], the pest or weed control at 320 g/ha in data set [5] was 90%.

On to `CCN(C)C=Nc1ncc(-c2ccc(Cl)c(C(F)(F)F)c2)cc1C` [compound 175], for which the “herbizide Wirkung VERPE” value in [5] is listed as 90. Moreover, the “herbizide Wirkung ECHCG” value in [12] worked out at 90. Further, in data set [3], the “herbizide Wirkung AMARE” value is listed as 80.

These data come from patent EP2264010A1, “Hetarylamidines” (Bayer CropScience AG, priority 2009, dated 2010).
